Reference: patent publication US10760110B2, “Antibiotic testing and screening system” (priority 2017, dated 2020)
Where two headings read alike, the source gives them in different places.

Experiments:
[1] = system: K. pneumoniae NVT1001 gyrA/parC and gyrA/parC/ramR mutants and revertants; assay: Etest MIC of quinolones, gyrA/parC and gyrA/parC/ramR mutants and their revertants (Table 11); format: cell-based; conditions: Klebsiella pneumoniae
Source text: The allelic-exchange method was used to restore the wild-type gene in the K. pneumoniae NVT1001 mutants with constructed chromosome-mediated resistance mechanisms, as described by Tsai et al.^19 Briefly, a DNA fragment of the entire wild-type gene sequence along with flanking regions was amplified from K. pneumoniae NVT1001 using PCR with specific primers. The resulting PCR fragment was digested and then cloned into pUT-KB. For homologous recombination, this plasmid was transformed into E. coli S17-1 λpir^23 via electroporation and mobilized into the K. pneumoniae NVT1001 mutant via conjugation. […] After incubation in 20 mL BHI broth for 6 hours at 37° C. in the absence of kanamycin, the fully grown cultures were spread onto LB agar plates supplemented with 10% sucrose. After the double crossover occurred, the sucrose-resistant and kanamycin-susceptible colonies were selected, and the restoration of the wild-type gene was confirmed via DNA sequencing.
(§1) The MICs of antibiotics were determined using the Etest (Biodisk AB, Sweden) according to the manufacturer's instructions. The MICs from the Etest, which fall between standard two-fold dilutions, were rounded up to the next highest two-fold value. The MICs of ceftazidime and cefotaxime against K. pneumoniae NVT1001 harbouring the pACYC177 plasmid with blaOXA-48 were further determined using a broth microdilution test according to the recommendations of the CLSI,^25 and the results were interpreted according to the breakpoints established by the CLSI in 2017.^25 Meanwhile, due to the lack of CLSI breakpoints in 2016 and 2017, the results for cephalothin were interpreted according to the breakpoints established by the CLSI in 2015,^26 and the results for moxifloxacin were interpreted according to the breakpoints established by the EUCAST in 2017.^27

[2] = system: A. baumannii KW1 and its GyrA/ParC mutants; assay: Etest MIC of quinolones, GyrA and/or ParC mutations (Table 17); format: cell-based; conditions: Acinetobacter baumannii
Source text: DNA fragments of the entire adeR, adeS, gyrA and parC along with their flanking regions were amplified from A. baumannii KW1 using PCR with specific primer pairs and then cloned into plasmid pUT-KB. The QuikChange site-directed mutagenesis kit (Stratagene) was used to generate mutations in the adeR, adeS, gyrA and parC genes in the plasmids using the methods described by the manufacturer. For homologous recombination, plasmids containing mutations in the adeR, adeS, gyrA or parC gene were transformed into E. coli S17-1 λpir^23 via electroporation and mobilized into A. baumannii KW1 via conjugation. Single-crossover strains were selected from Luria-Bertani (LB) plates supplemented with cefotaxime (1 μg/ml) and kanamycin ([…]), as the growth of non-A. baumannii contaminants is suppressed by cefotaxime (1 μg/ml). The kanamycin-resistant transconjugants were selected and the insertion of plasmids was verified via PCR. After incubation in 20 ml brain heart infusion (BHI) broth for 6 hours in the absence of kanamycin at 37° C., the fully grown cultures were spread onto LB plates supplemented with 10% sucrose. After the double crossover occurred, the sucrose-resistant and kanamycin-susceptible colonies were selected, and the gene mutations were confirmed via PCR.
as §1

[3] = S83F/D87N/S80I::F83S/N87D/I80S revertant, read-out: MIC
[4] = S83F/D87N/S80I::I80S revertant, read-out: MIC
[5] = S83F/D87N/S80I::N87D revertant, read-out: MIC
[6] = S83F/D87N/S80I::N87D/I80S revertant, read-out: MIC
[7] = S83I/D87N/S80I::I80S revertant, read-out: MIC
[8] = S83I/D87N/S80I::I83S/N87D/I80S revertant, read-out: MIC
[9] = S83I/D87N/S80I::N87D revertant, read-out: MIC
[10] = S83I/D87N/S80I::N87D/I80S revertant, read-out: MIC
[11] = S83L/D87N/S80I::I80S revertant, read-out: MIC
[12] = S83L/D87N/S80I::L83S/N87D/I80S revertant, read-out: MIC
[13] = S83L/D87N/S80I::N87D revertant, read-out: MIC
[14] = S83L/D87N/S80I::N87D/I80S revertant, read-out: MIC
[15] = S83Y/D87N/S80I::I80S revertant, read-out: MIC
[16] = S83Y/D87N/S80I::N87D revertant, read-out: MIC
[17] = S83Y/D87N/S80I::N87D/I80S revertant, read-out: MIC
[18] = S83Y/D87N/S80I::Y83S/N87D/I80S revertant, read-out: MIC
[19] = ΔramR/S83I/D87N/S80I:: ramR/I83S revertant
[20] = ΔramR/S83I/D87N/S80I:: ramR/I83S/I80S revertant
[21] = ΔramR/S83I/D87N/S80I:: ramR/I83S/N87D revertant
[22] = ΔramR/S83I/D87N/S80I::I83S/N87D/I80S revertant
[23] = ΔramR/S83I/D87N/S80I::N87D revertant
[24] = ΔramR/S83I/D87N/S80I::N87D/I80S revertant
[25] = ΔramR/S83I/D87N/S80I::ramR/I83S/N87D/I80S

SMILES | MIC ([1]; S83F/D87N/S80I mutant) | MIC [1, 3] | MIC [1, 4] | MIC [1, 5] | MIC [1, 6] | MIC ([1]; S83I/D87N/S80I mutant) | MIC [1, 7] | MIC [1, 8] | MIC [1, 9] | MIC [1, 10] | MIC ([1]; S83L/D87N/S80I mutant) | MIC [1, 11] | MIC [1, 12] | MIC [1, 13] | MIC [1, 14] | MIC ([1]; S83Y/D87N/S80I mutant) | MIC [1, 15] | MIC [1, 16] | MIC [1, 17] | MIC [1, 18] | other results
CCn1cc(C(=O)O)c(=O)c2cc(F)c(N3CCNCC3)cc21 [Norfloxacin, norfloxacin] | 32 µg/mL | 0.25 µg/mL | 2 µg/mL | 4 µg/mL | 2 µg/mL | 64 µg/mL | 2 µg/mL | 0.25 µg/mL | 16 µg/mL | 2 µg/mL | 64 µg/mL | 2 µg/mL | 0.25 µg/mL | 8 µg/mL | 2 µg/mL | 32 µg/mL | 2 µg/mL | 4 µg/mL | 2 µg/mL | 0.25 µg/mL | MIC ([1]; ΔramR/S83I/D87N/S80I mutant): > 256 µg/mL; MIC [1, 19]: 2 µg/mL; MIC [1, 20]: 1 µg/mL; MIC [1, 21]: 0.25 µg/mL; MIC [1, 22]: 2 µg/mL; MIC [1, 23]: 128 µg/mL; MIC [1, 24]: 8 µg/mL; MIC [1, 25]: 0.25 µg/mL; MIC ([2]; E84K mutant): 4 µg/mL; MIC ([2]; G78C mutant): 4 µg/mL; MIC ([2]; KW1, read-out: MIC): 4 µg/mL; MIC ([2]; S80L mutant): 4 µg/mL; MIC ([2]; S80W mutant): 6 µg/mL; MIC ([2]; S80Y mutant): 4 µg/mL; MIC ([2]; S83L mutant): 24 µg/mL; MIC ([2]; S83L/E84K mutant): > 256 µg/mL; MIC ([2]; S83L/G78C mutant): > 256 µg/mL; MIC ([2]; S83L/S80L mutant): > 256 µg/mL; MIC ([2]; S83L/S80W mutant): > 256 µg/mL; MIC ([2]; S83L/S80Y mutant): > 256 µg/mL
CCn1cc(C(=O)O)c(=O)c2ccc(C)nc21 [Nalidixic acid, nalidixic acid] | > 256 µg/mL | 4 µg/mL | > 256 µg/mL | > 256 µg/mL | > 256 µg/mL | > 256 µg/mL | > 256 µg/mL | 4 µg/mL | > 256 µg/mL | > 256 µg/mL | > 256 µg/mL | > 256 µg/mL | 4 µg/mL | > 256 µg/mL | > 256 µg/mL | > 256 µg/mL | > 256 µg/mL | > 256 µg/mL | > 256 µg/mL | 8 µg/mL | MIC ([1]; ΔramR/S83I/D87N/S80I mutant): > 256 µg/mL; MIC [1, 19]: > 256 µg/mL; MIC [1, 20]: > 256 µg/mL; MIC [1, 21]: 8 µg/mL; MIC [1, 22]: 32 µg/mL; MIC [1, 23]: > 256 µg/mL; MIC [1, 24]: > 256 µg/mL; MIC [1, 25]: 8 µg/mL; MIC ([2]; E84K mutant): 12 µg/mL; MIC ([2]; G78C mutant): 12 µg/mL; MIC ([2]; KW1, read-out: MIC): 12 µg/mL; MIC ([2]; S80L mutant): 12 µg/mL; MIC ([2]; S80W mutant): 12 µg/mL; MIC ([2]; S80Y mutant): 12 µg/mL; MIC ([2]; S83L mutant): > 256 µg/mL; MIC ([2]; S83L/E84K mutant): > 256 µg/mL; MIC ([2]; S83L/G78C mutant): > 256 µg/mL; MIC ([2]; S83L/S80L mutant): > 256 µg/mL; MIC ([2]; S83L/S80W mutant): > 256 µg/mL; MIC ([2]; S83L/S80Y mutant): > 256 µg/mL
